According to US20170239212A1, “[…] AND USE THEREOF AS ANTIVIRAL AGENTS” (priority 2014, published 2017):

Tests used:
Type in all cases: cell-based
[1] = system: HIV long terminal repeat (LTR) promoter; assay: HOS LTR stimulation assay (luciferase reporter)
Description: In the assay, non T cell derived human osteosarcoma (HOS) cells are transfected with a luciferase reporter under control of an HIV long terminal repeat (LTR) promoter. Compounds that stimulate the HIV LTR promoter will produce luciferase in a dose dependent manner.
Specifically, EC50 and CC50 values were determined in parallel using 10 concentrations of compound from 3 fold serial dilutions starting a 5 uM as the highest concentration. Cells and media were added to compounds with a final concentration of DMSO of 1% and incubated at 37° C., 5% CO2 for 24, 48 and 72 hours. EC50 was measured by induced luciferase activity detected by the use of the Steady-Glo® Luciferase reagent (PROMEGA) with an EnVision (Perkin-Elmer) plate reader. CC50 was determined by the dose dependent knock down of cellular ATP detected by the use of CellTiter-Glo® Luminescent Cell Viability reagent (PROMEGA) with an EnVision (Perkin-Elmer) plate reader.
The error bars represent the average and the standard error of the mean of at least three independent experiments.

[2] = system: K-562 human myelocytic leukemia cell line; assay: Proliferation of K-562 cells; conditions: maximally effective concentration, 72 hours, vs DMSO control
Description: K562 cells were counted after 3 day treatment with different concentrations of PMA (0.1, 1, 10, 100, 1000 nM), bryostatin 1 (0.1, 1, 10, 100, 1000 nM), the bryologues MERLE 21, 22, or 23 (1, 10, 100, 1000, 5000 nM) or DMSO as control. The number of cells is presented as % of the DMSO-treated control. Data represent the means±SEM of three independent experiments.
K-562 cells, from the Biological Testing Branch, National Cancer Institute, NIH (Frederick, Md.), were grown under usual conditions in RPMI-1640, supplemented with 10% fetal bovine serum. 72 hours after treatment with different drugs or DMSO the cell number was determined using a Beckman particle counter (Beckman Coulter Inc., Fullerton, Calif.).

Jurkat cell line = assay: in vitro; conditions: Jurkat cells, knock down of cellular ATP

Structure (SMILES)	Max signal (% of control) ([1]; HOS cells, LTR-luciferase signal)	Conc (uM) at Max ([1]; HOS cells, concentration at maximal LTR-luciferase signal)	EC50 ([1]; Human immunodeficiency virus 1, HOS)	Maximal inhibition of K-562 cell growth [2]	CC50 (Jurkat cell line)
CCC/C=C/C=C/C(=O)O[C@H]1/C(=C/C(=O)OC)C[C@H]2C[C@H]([C@@H](C)O)OC(=O)C[C@H](O)C[C@@H]3C[C@H](OC(C)=O)C(C)(C)[C@](O)(C[C@@H]4C/C(=C/C(=O)OC)C[C@H](/C=C/C(C)(C)[C@]1(O)O2)O4)O3 [Bryostatin 1]	157 % of control	2.51 µM	2 nM	31.8±9.2%	–
CCCCCCCCCCCCCC(=O)O[C@@H]1[C@@H](C)[C@@]2(O)[C@@H](C=C(CO)C[C@]3(O)C(=O)C(C)=C[C@@H]23)[C@@H]2C(C)(C)[C@]12OC(C)=O [PMA, phorbol 12-myristate 13-acetate]	–	–	–	–	0.1 nM
